From US9458196B2, “Synthetic peptides capable of binding to influenza hemagglutinin protein” (priority 2012, dated 2016)

Test system: HA proteins from five different viral strains H1N1, H5N1, H9N2, H3N2 and H14N5
Format: biochemical, influenza virus

Sequence | ability to block pH triggered shape changes / low pH induced association of HA proteins
AERPKVRGQAGRMN [LPF54] | ability to block pH triggered shape changes
KEFNNLEKR [PF42] | ability to block pH triggered shape changes
KEFSEVEGR [PF41] | ability to block pH triggered shape changes
PGDFNDYE [PF13] | ability to block pH triggered shape changes
PYDVPDYA [PF12] | ability to block pH triggered shape changes
PYDVPDYE [PF11] | ability to block pH triggered shape changes
TKRSQQTVIP [PF31] | ability to block pH triggered shape changes
TSRSQQTVIP [PF32] | ability to block pH triggered shape changes
